Measured values from patent publication US7078404B2, “Acyl-3-carboxyphenylurea derivatives, processes for preparing them and their use” (Sanofi-Aventis Deutschland GmbH, priority 2002, dated 2006).

These compounds were tested against T1, Human glycogen phosphorylase a (Homo sapiens, UniProt P06737) (assay: Glycogen phosphorylase a activity test). Details: 10 μM concentration of the test substance; GPa measured in the reverse direction, in vitro.
T1 sequence (P06737 1-847): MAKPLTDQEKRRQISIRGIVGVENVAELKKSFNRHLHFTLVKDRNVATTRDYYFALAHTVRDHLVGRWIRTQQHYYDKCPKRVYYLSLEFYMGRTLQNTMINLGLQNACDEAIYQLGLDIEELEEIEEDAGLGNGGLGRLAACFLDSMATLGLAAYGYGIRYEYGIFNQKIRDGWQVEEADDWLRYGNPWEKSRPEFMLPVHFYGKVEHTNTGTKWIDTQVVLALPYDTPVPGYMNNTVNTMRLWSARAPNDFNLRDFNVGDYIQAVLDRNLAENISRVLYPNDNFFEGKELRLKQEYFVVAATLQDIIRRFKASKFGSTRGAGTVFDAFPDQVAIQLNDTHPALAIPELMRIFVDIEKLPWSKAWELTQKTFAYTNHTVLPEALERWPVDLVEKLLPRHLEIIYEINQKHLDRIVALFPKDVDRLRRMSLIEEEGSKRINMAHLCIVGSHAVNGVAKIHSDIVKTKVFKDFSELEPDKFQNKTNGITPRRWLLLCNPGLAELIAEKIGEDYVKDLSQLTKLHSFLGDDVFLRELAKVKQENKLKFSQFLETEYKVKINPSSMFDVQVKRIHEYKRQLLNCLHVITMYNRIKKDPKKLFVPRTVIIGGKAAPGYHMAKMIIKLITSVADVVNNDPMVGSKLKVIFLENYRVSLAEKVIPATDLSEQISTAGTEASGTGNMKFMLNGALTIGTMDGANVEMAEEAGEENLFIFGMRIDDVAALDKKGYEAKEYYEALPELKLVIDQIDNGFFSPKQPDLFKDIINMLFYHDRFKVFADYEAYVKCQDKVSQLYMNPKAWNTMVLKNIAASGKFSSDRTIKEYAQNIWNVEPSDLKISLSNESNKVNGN
Assay type: biochemical
Description: Glycogen Phosphorylase a Activity Test
The effect of compounds on the activity of the active form of glycogen phosphorylase (GPa) was measured in the reverse direction by monitoring the synthesis of glycogen from glucose 1-phosphate by determining the release of inorganic phosphate. All the reactions were carried out as duplicate determinations in 96-well microtiter plates (Half Area Plates, Costar No. 3696), with the change in absorption due to the formation of the reaction product being measured, at the wavelength specified below, in a Multiscan Ascent Elisa Reader (Lab Systems, Finland). In order to measure the enzymic activity of GPa in the reverse direction, the conversion of glucose 1-phosphate into glycogen and inorganic phosphate was measured in accordance with the general method of Engers et al. (Engers HD, Shechosky S, Madsen NB, Can J Biochem 1970 July;48(7): 746–754) but with the following modifications: Human glycogen phosphorylase a (for example containing 0.76 mg of protein/ml (Aventis Pharma Deutschland GmbH), dissolved in buffer solution E (25 mM β-glycerophosphate, pH 7.0, 1 mM EDTA and 1 mM dithiothreitol), was diluted with buffer T (50 mM Hepes, pH 7.0, 100 mM KCl, 2.5 mM EDTA, 2.5 mM MgCl2.6H2O), and addition of 5 mg of glycogen/ml, to a concentration of 10 μg of protein/ml. Test substances were prepared as a 10 mM solution in DMSO and diluted down to 50 μM with buffer solution T. 10 μl of 37.5 mM glucose, dissolved in buffer solution T and 5 mg/ml of glycogen, and also 10 μl of a solution of human glycogen phosphorylase a (10 μg of protein/ml) and 20 μl of glucose 1-phosphate, 2.5 mM, were added to […] of the solution. The basal value of the activity of the glycogen phosphorylase a in the absence of test substance was determined by adding 10 μl of buffer solution T (0.1% DMSO). The mixture was incubated at room temperature for 40 minutes and the inorganic phosphate which was released was measured using the general method of Drueckes et al. (Drueckes P, Schinzel R, Palm D, Anal Biochem […] Sep. 1;230(10):173–177) but with the following modifications: 50 μl of a stop solution of 7.3 mM ammonium molybdate, 10.9 mM zinc acetate, 3.6% ascorbic acid, 0.9% SDS are added to 50 μl of the enzyme mixture. After 60 minutes of incubation at 45° C., the absorption was measured at 820 nm. In order to determine the background absorption, the stop solution was added immediately after adding the glucose 1-phosphate solution in a separate assay. This test was carried out using a 10 μM concentration of the test substance in order to determine the respective inhibition of glycogen phosphorylase a by the test substance in vitro.

How did the “% inhibition at 10 μM” value turn out when `COc1ccc(C(=O)O)cc1NC(=O)NC(=O)c1ccc(F)cc1F` [Example 18] was run?
Its value is 69%.

How did the “% inhibition at 10 μM” value turn out when `O=C(NC(=O)c1ccc(Cl)cc1Cl)Nc1cc(C(=O)O)ccc1F` [Example 4] was run?
The value was 75%.

With `NC(CO)(CO)CO.O=C(NC(=O)c1cc(Cl)ccc1Cl)Nc1cc(C(=O)O)ccc1Cl` [Example 7] as the compound, how does the “% inhibition at 10 μM” value read?
Its value is 54%.

For `CCOc1ccc(C(=O)O)cc1NC(=O)NC(=O)c1ccc(Cl)cc1Cl` [Example 13], which “% inhibition at 10 μM” value is on record?
The value was 86%.

Which “% inhibition at 10 μM” value does the source give for `COCCOc1ccc(C(=O)O)cc1NC(=O)NC(=O)c1ccc(Cl)cc1Cl` [Example 22] here?
The value was 72%.

`O=C(NC(=O)c1ccc(Cl)cc1F)Nc1cc(C(=O)O)ccc1Cl` [Example 15] was tested. Which “% inhibition at 10 μM” value did it give?
The value was 61%.

With `O=C(NC(=O)c1ccc(Cl)cc1Cl)Nc1cc(C(=O)O)ccc1O` [Example 3] as the compound, how does the “% inhibition at 10 μM” value read?
The value was 74%.

With `NC(CO)(CO)CO.O=C(NC(=O)c1ccc(Cl)cc1Cl)Nc1cc(C(=O)O)ccc1Oc1ccccc1` [Example 24] as the compound, how does the “% inhibition at 10 μM” value read?
The value was 65%.

For `COc1ccc(C(=O)O)cc1NC(=O)NC(=O)c1ccc(C)cc1C` [Example 14], which “% inhibition at 10 μM” value is on record?
Its value is 57%.

With `COc1ccc(C(=O)O)cc1NC(=O)NC(=O)c1ccccc1C` [Example 8] as the compound, how does the “% inhibition at 10 μM” value read?
Its value is 77%.

For `O=C(NC(=O)c1ccc(Cl)cc1Cl)Nc1cc(C(=O)O)ccc1C(F)(F)F` [Example 26], which “% inhibition at 10 μM” value is on record?
Its value is 44%.

With `COc1ccc(C(=O)O)cc1NC(=O)NC(=O)c1ccc(Cl)c(Cl)c1` [Example 10] as the compound, how does the “% inhibition at 10 μM” value read?
Its value is 41%.

For `O=C(NC(=O)c1cc(Cl)ccc1Cl)Nc1cc(C(=O)O)ccc1Cl` [Example 6], which “% inhibition at 10 μM” value is on record?
The value was 57%.

With `COc1ccc(C(=O)O)cc1NC(=O)NC(=O)c1ccccc1Cl` [Example 2] as the compound, how does the “% inhibition at 10 μM” value read?
Its value is 75%.

For `O=C(NC(=O)c1ccc(Cl)cc1Cl)Nc1cc(C(=O)O)ccc1OCCO` [Example 19], which “% inhibition at 10 μM” value is on record?
Its value is 90%.

Which “% inhibition at 10 μM” value does the source give for `O=C(NC(=O)c1ccc(F)cc1Cl)Nc1cc(C(=O)O)ccc1C(F)(F)F` [Example 25] here?
Its value is 49%.

For `COc1ccc(C(=O)O)cc1NC(=O)NC(=O)c1ccc(Cl)cc1Cl` [Example 1, 3-[3-(2,4-Dichlorobenzoyl)ureido]-4-methoxybenzoic acid], which inhibition at 10 µM is on record?
The inhibition at 10 µM was 95%.

How did the “% inhibition at 10 μM” value turn out when `CCCOc1ccc(C(=O)O)cc1NC(=O)NC(=O)c1ccc(Cl)cc1Cl` [Example 20] was run?
The value was 62%.

Which “% inhibition at 10 μM” value does the source give for `O=C(NC(=O)c1ccc(Cl)cc1Cl)Nc1cc(C(=O)O)ccc1Oc1ccccc1` [Example 23] here?
Its value is 55%.

With `COc1ccc(C(=O)O)cc1NC(=O)NC(=O)c1ccc(Cl)cc1F` [Example 16] as the compound, how does the “% inhibition at 10 μM” value read?
Its value is 48%.

For `O=C(NC(=O)c1ccccc1Cl)Nc1cc(C(=O)O)ccc1Cl` [Example 11], which “% inhibition at 10 μM” value is on record?
Its value is 49%.

Which “% inhibition at 10 μM” value does the source give for `CCCCOc1ccc(C(=O)O)cc1NC(=O)NC(=O)c1ccc(Cl)cc1Cl` [Example 21] here?
Its value is 64%.

`O=C(NC(=O)c1ccc(Cl)cc1Cl)Nc1cc(C(=O)O)ccc1Cl` [Example 12] was tested. Which “% inhibition at 10 μM” value did it give?
Its value is 83%.

`COc1ccc(C(=O)O)cc1NC(=O)NC(=O)c1cc(Cl)ccc1Cl` [Example 9] was tested. Which “% inhibition at 10 μM” value did it give?
Its value is 81%.

Which “% inhibition at 10 μM” value does the source give for `O=C(NC(=O)c1ccc(F)cc1F)Nc1cc(C(=O)O)ccc1Cl` [Example 17] here?
The value was 52%.
